The results in this text go back to patent publication US20130274270A1, “POLYMORPHS OF 3-CHLORO-4[(2R)-2-(4-CHLOROPHENYL)-4-[(1R)-1-(4-CYANOPHENYL)ETHYL]-1-PIPERAZINYL]-BENZONITRILE, PHARMACEUTICAL COMPOSITIONS AND METHOD OF USE COMPRISING SAID POLYMORPHS, AND A PROCESS FOR PREPARING THEM” (priority 2010, published 2013).

Where a name gives a salt, the structure may show the parent alone.

Type in all cases: physicochemical
A short description of one data set: Photosensitivity. The following applies: especially in solution.
A short description of data set [1]: Competition slurry experiments. On the procedure:
Competition slurry experiments were conducted by combining approximately 100 milligrams of starting material with 1 milliliter of solvent in a 4 milliliter amber glass vial. A polytetrafluoroethylene coated magnetic stir bar was added to each vial. The slurry sample was stirred for one day and checked to confirm solids were still present. The sample was then seeded with forms identified during the polymorph screening and continued stirring at room temperature for 9 days. Solids were collected and analyzed to determine their crystal form.
The evaporative crystallization experiments from solutions produced another polymorph, termed Form II, and two suspected solvates or hydrates. Competition slurries were prepared with Form I, Form II and the suspected solvates or hydrates to confirm they were metastable with respect to Form 1. The competition slurries were prepared by dispersing Form II in isopropanol, a water/methanol mixture at a water activity of 0.5, and water.
A variable-temperature competition slurry was repeated using Forms I and III by suspending approximately 100 mg of each form in 2 milliliters of isopropanol at 4° C., room temperature, 40° C., and 50° C. The slurries were allowed to stir for 11 days and checked by PXRD. […] Afterwards, the solutions were seeded with Form I and stirred for 1 day.

Another data set in a line: DSC, heat of fusion rule. The conditions noted are these: monotropically related forms. How it is done: (§1) All powder X-ray diffraction (PXRD) data was collected using a Rigaku Miniflex instrument. Samples were analyzed on silicon zero background holders from 2 to 40 degrees two theta with a step size of 0.02 degrees two theta and a scan time of 0.6 seconds per step. Differential scanning calorimetry (DSC) data was collected using a Q100 DSC from TA Instruments. Samples were sealed in hermetic aluminum pans with two pinholes in the lid. All were analyzed under nitrogen purge. Vapor sorption analysis was performed using a SGA-100 from VTI Scientific Instruments. Thermogravimetric analysis (TGA) data was collected on a Q500 TGA from TA Instruments. Samples were analyzed in platinum pans under a nitrogen purge.
(DSC measures the heat that a sample takes up or gives off during a temperature scan.)

Data set [2] in a line: Thermogravimetric analysis (TGA). On the procedure: as §1
A short description of data set [3]: Change in crystal form as a function of heating (DSC heating rates). The conditions noted are these: DSC at 2° C., 10° C. and 20° C. per minute. How it is done:
Change in crystal form as a function of heating was evaluated by analyzing samples of the material using the DSC at heating rates of 2, 10, and 20° C. per minute.

The nature of data set [4]: Change in crystal form as a function of pressure (Carver press). The following applies: 13 mm die, approximately 4000 pounds, approximately 30 seconds. On the procedure: Change in crystal form as a function of pressure was evaluated by pressing 86.0 mg of material in a 13 millimeter die at approximately 4000 pounds for approximately 30 seconds with a carver press.
Data set [5] is described as follows: Vapor sorption analysis (change in crystal form as a function of moisture). The following applies: 25° C. How it is done:
as §1
Change in crystal form as a function of moisture was evaluated by a SGA-100 vapor sorption instrument from VTI Scientific Instruments. Approximately 10 to 15 mg of material was exposed to a relative humidity range from 5% to 95% at 25° C. for 2 cycles.

Data set [6] in a line: Change in crystal form as a function of milling. The conditions noted are these: ground for 5 seconds at 3800 rpm. How it is done: Change in crystal form as a function of milling was conducted by grinding 79.2 milligrams of material in a stainless steel liner with a stainless steel ball pestle using a high speed mixer and amalgamator. The material was ground for 5 seconds at 3800 rpm.

Data set [7] is described as follows: Solvent-mediated polymorphic transformation experiments (slurry / slow evaporation, PXRD). On the procedure:
Solvent-mediated polymorphic transformation experiments were conducted by combining approximately 100 mg of starting material with 1 milliliter of solvent in a 4 mL amber glass vial. A polytetrafluoroethylene coated magnetic stir bar was added to each vial. For suspensions, the vials were sealed with polytetrafluoroethylene-lined caps and stirred using magnetic stir plates at 4° C., room temperature, or 50° C. for 14 days. For solutions, the vials were covered with aluminum foil and the solutions were slowly evaporated for 14 days. Solids were collected and analyzed for changes in crystal form. For this work, both slurry and evaporative crystallization was performed. Slurry experiments are utilized to identify the thermodynamically stable form while evaporative crystallizations favor the identification of metastable forms.

A short description of data set [8]: Temperature-solubility profile in isopropanol (Crystal 16). On the procedure: To further characterize Form III, temperature-solubility profiles were constructed for both Form I and III. Different amounts of each form were suspended in 1 milliliter of isopropanol to prepare solutions of varying concentrations. The experiments were conducted on Crystal 16 to generate a temperature-solubility profile. The suspensions were slowly heated from 20° C. to 75° C. at 0.1° C./min and then cooled to 0° C. at a rate of 0.1° C. /min. The stirring rate was 700 rpm during the entire experiment.

[9] abbreviates: Acetonitrile, RT/Solution, slowly evaporated 14 days.
The mark [10] stands for this setting: Dichloromethane, RT/Solution, slowly evaporated 14 days.
Setting [11] is: Isopropanol, RT/Suspension, stirred 14 days.
The mark [12] stands for this setting: Water, RT/Suspension, stirred 14 days.
Setting [13] is: Water/Methanol, 4° C./Suspension, stirred 14 days.
Setting [14] is: Water/Methanol, 50° C./Suspension, stirred 14 days.
[15] abbreviates: Water/Methanol, RT/Suspension, stirred 14 days.

As to `C[C@H](c1ccc(C#N)cc1)N1CCN(c2ccc(C#N)cc2Cl)[C@H](c2ccc(Cl)cc2)C1` [Compound A, 3-Chloro-4[(2R)-2-(4-chlorophenyl)-4-[(1R)-1-(4-cyanophenyl)ethyl]-1-piperazinyl]-benzonitrile], in “Photosensitivity”, the sensitivity to light entry is reported as “photosensitive”.

In the case of `C[C@H](c1ccc(C#N)cc1)N1CCN(c2ccc(C#N)cc2Cl)[C@H](c2ccc(Cl)cc2)C1` [Form I, 3-Chloro-4[(2R)-2-(4-chlorophenyl)-4-[(1R)-1-(4-cyanophenyl)ethyl]-1-piperazinyl]-benzonitrile], in data set [1], the “Thermodynamic stability by competition slurry experiments” value is on record as “a stable form”. In “DSC, heat of fusion rule”, the “relative thermodynamic stability of Form I and Form II (heat of fusion rule)” value is reported as “the more thermodynamically stable”. The decomposition temperature result in data set [2] was “above 295 °C”. Further, the “weight loss (TGA)” value in data set [2] (at 204° C.) is reported as 0.6%. Also, the “change in crystal form as a function of heating rate” value in data set [3] is listed as “no change in the crystal form”. Moreover, in data set [4], the “change in crystal form after pressing” value is listed as “no significant change in the crystal form”. In addition, the “polymorphic form change after vapor sorption analysis (PXRD before and after)” value in data set [5] (5% to 95% relative humidity) is recorded as “no polymorphic form change”. Further, the “moisture absorbed by weight” value in data set [5] (between 5% and 95% relative humidity, 2 cycles) came to 0.07%. In addition, the “change in crystal form after milling” value in data set [6] was “no significant change in the crystal form”. For the same compound, the “PXRD Result” value in data set [7] (setting [9]) is on record as “Form 2”; in [7] (setting [10]) it was “Form 2”; in data set [7] (setting [11]), “Form 1”; in data set [7] (Toluene, 50° C./Solution, 14 days), “Amorphous”; in [7] (setting [12]), “Form 1”; in data set [7] (setting [13]) it was “Form 1”. Also, the “PXRD Result” value in data set [7] (setting [14]) and in data set [7] (setting [15]) was “Form 1” in each case. For the same compound, in [7] (all slurry experiments except those in water, regardless of starting form, water activity or temperature), the “Thermodynamic stability indicated by slurry experiments” value is reported as “the most thermodynamically stable form”.

In the case of `C[C@H](c1ccc(C#N)cc1)N1CCN(c2ccc(C#N)cc2Cl)[C@H](c2ccc(Cl)cc2)C1` [Form II, 3-Chloro-4[(2R)-2-(4-chlorophenyl)-4-[(1R)-1-(4-cyanophenyl)ethyl]-1-piperazinyl]-benzonitrile], the “Crystal form of solids collected from competition slurry” value in data set [1] (Form II dispersed in isopropanol, seeded with the other forms, room temperature) is listed as “consistent with Form I”; in data set [1] (Form II dispersed in water, seeded, room temperature), “stayed as Form II”; in data set [1] (Form II dispersed in water/methanol mixture at a water activity of 0.5, seeded, room temperature), “consistent with Form I”. This compound registered a decomposition temperature in [2] of 310 °C. The “weight loss (TGA)” value in [2] (at 226° C.) is 0.6%. In addition, the “PXRD Result” value in [7] (setting [9]) is listed as “Form II”; in [7] (setting [10]), “Form II”; in data set [7] (setting [11]), “Form I”; in [7] (setting [12]), “Form II”; in [7] (setting [13]) it was “Form I”; in data set [7] (setting [14]), “Form I”. In addition, in data set [7] (setting [15]), the “PXRD Result” value was “Form I”.

Take `C[C@H](c1ccc(C#N)cc1)N1CCN(c2ccc(C#N)cc2Cl)[C@H](c2ccc(Cl)cc2)C1` [Form III, 3-Chloro-4[(2R)-2-(4-chlorophenyl)-4-[(1R)-1-(4-cyanophenyl)ethyl]-1-piperazinyl]-benzonitrile]: the “Thermodynamic stability by competition slurry experiments” value in data set [1] was “the most stable form”. Moreover, in data set [1] (about 100 mg of each form in 2 mL isopropanol at 4° C., room temperature, 40° C. and 50° C., 11 days), the “PXRD result of variable-temperature competition slurry of Forms I and III” value is given as “Form III was formed under all conditions”. Moreover, the “PXRD result after seeding with Form I” value in data set [1] (isopropanol slurries seeded with Form I and stirred for 1 day) is on record as “remained as Form III”. This compound also had a decomposition temperature in data set [2] of 312 °C. Besides, the “weight loss (TGA)” value in data set [2] (at 228° C.) amounted to 0.07%. Moreover, in [8] (above 29.4° C.), the “thermodynamic stability from temperature-solubility profile” value is listed as “the most thermodynamically stable anhydrous crystalline form”. The relative solubility result in data set [8] (at temperatures greater than 29.4° C.) is on record as “less soluble than Form I”.

Consider `CC(c1ccc(C#N)cc1)N1CCN(c2ccc(C#N)cc2Cl)C(c2ccc(Cl)cc2)C1` (stereo not drawn) [Formula II], for which, in the data set “Photosensitivity”, the sensitivity to light result is “photosensitive”.

In the case of `C[C@H](c1ccc(C#N)cc1)N1CCN(c2ccc(C#N)cc2Cl)[C@H](c2ccc(Cl)cc2)C1` [xinafoate salt], the “weight loss (TGA)” value is reported as 0.2% in [2] (at 146° C.); 27.2% in [2] (starting from 161° C. and ending at 236° C.). The “behaviour of the salt on melting (large weight loss at melt)” value in data set [2] (melt at 163.5° C.) was “disproportionates or decomposes with melting”.
